In assay [1] the test system is Mouse splenocyte proliferation (T lymphocytes). Description: Immunosuppressive activity: ConA-induced proliferation of mouse splenocytes (T lymphocytes), CCK8. The note with it: BALB/c spleen cells, 5 μg/mL ConA, 24 h, mean ± SD of three triplicate experiments. The assay is classed as cell-based, BALB/c mice. An excerpt:
To assess the biological activity of the MPA derivatives, we primarily evaluated their IMPDH2 inhibitory activity with the previously reported enzyme assay method. […] Subsequently, the MPA derivatives were further tested for the in vitro immunosuppressive activity against the proliferation of T lymphocytes. Unsurprisingly, the activity at the cellular level was markedly consistent with their IMPDH2 inhibitory activity.
BALB/c mice were sacrificed by cervical dislocation, and the spleens were removed aseptically. Mononuclear cell suspensions were prepared after cell debris, and clumps were removed. Erythrocytes were depleted with ammonium chloride buffer solution. Lymphocytes were washed and suspended in DMEM medium supplemented with 10% FBS, penicillin (100 U/mL), and streptomycin ([…]). The 5 × 10^5 (150 μL per well) spleen cells in 96-well microtiter plates were cultured at 37 °C in a humidified and 5% CO2-containing incubator for 24 h in the presence or absence of the serious concentrations (ranging from 0.1 to 100 µM) of compounds. The cultures were stimulated with 5 μg/mL of concanavalin A (ConA) to induce T cells proliferative response. After treatment for 24 h, the cell quantity was measured using a CCK8 assay kit according to the manufacturer’s instructions.

A further assay deals with T1, IMPDH2 (Homo sapiens, UniProt P12268).
T1 construct: made in house; host or cells: Escherichia coli BL21(DE3)
The experiment in a line: IMPDH2 enzyme inhibition assay (recombinant protein, absorbance at 340 nm). The assay is classed as biochemical. Conditions: recombinant IMPDH2, IMP and NAD+ substrates, pH 7.2, 37 °C; mean ± SD of three triplicate experiments; read-out: IC50 Inosine-5′-Monophosphate Dehydrogenase (IMPDH2). How it is done: The gene encoding IMPDH2 was cloned into the pET-28a vector (Novagen). After the recombinant plasmids were verified by sequencing, the plasmid was transformed into Escherichia coli BL21(DE3) (Invitrogen), which was grown in LB medium at 37 °C to an OD600 (0.8–1.0) and induced by 0.4 mM isopropyl-D-thiogalactopyranoside (IPTG) and grown at 20 °C for 16 h. The cell pellet was harvested and re-suspended in 30 mL buffer (20 mM Tris pH 8.5, 200 mM NaCl, and 10 mM imidazole), followed by disruption on a French press. Cell debris was removed by centrifugation at 21,000 rpm for 30 min. […] The protein was further purified with size exclusion chromatography at 20 mM Tris pH 8.5 and 200 mM NaCl.
The IMPDH2 inhibitory effects of test compounds were measured using the recombinant protein above. The enzyme solution (20 µL, 10 µg/mL), test compounds (10 µL) and buffer (40 µL, 100 mM phosphate buffer, pH 7.2) were pipetted and mixed in a 96-well microtiter plate. The mixture was incubated for 10 min at 37 °C. After incubation, inosine 5′-monophosphate (IMP) substrate solution (30 µL, 2.5 mM) and NAD^+ (30 µL, 5 mM) were added. The reaction can be readily monitored by an increase in optical absorbance at 340 nm. […] The data were imported into Prism (version 5.0, GraphPad) and the IC50 values were calculated by using a standard dose response curve fitting.

Where only a bound is given, the exact number is not on record here.

For `COc1c(C)c2c(c(O)c1C/C=C(\C)CCC(=O)N[C@@H](Cc1ccccc1)C(=O)O)C(=O)OC2` [Compound 9, N-mycophenoyl-L-phenyloalanine], the half-inhibitory concentration (IC50) was more than 40 µM in assay [1] and 23.8 ± 3.54 µM on IMPDH2. `COc1c(C)c2c(c(O)c1C/C=C(\C)CCC(=O)O)C(=O)OC2` [MPA (11), Mycophenolic acid, reference compound]: the 50% inhibitory concentration (IC50) in assay [1] was 0.96 ± 0.05 µM. Turning to `COc1c(C)c2c(c(O)c1CCC(C)C(=O)O)C(=O)OC2` (stereo not drawn) [Compound 5, 6-(3-carboxybutyl)-7-hydroxy-5-methoxy-4-methylphthalan-1-one], the values for the half-maximal inhibitory concentration (IC50) (in assay [1]; on IMPDH2) were more than 40 µM and 24.7 ± 2.74 µM, respectively. For `COc1c(C)c2c(c(O)c1C/C=C(\C)CCC(=O)N[C@@H](C)C(=O)O)C(=O)OC2` [Compound 10, N-mycophenoyl-L-alanine] the same measures were more than 40 µM and 17.5 ± 1.3 µM. In the case of `COc1c(C)c2c(c(O)c1C/C=C(\C)CCC(=O)OCC(O)CO)C(=O)OC2` (stereo not drawn) [Compound 6, 6-[5-(2,3-dihydroxy-1-carboxyglyceride)-3-methylpent-2-enyl]-7-hydroxy-5-methoxy-4-methylphthalan-1-one], the IC50 came to 19.7 ± 0.89 µM in assay [1] and 8.59 ± 0.43 µM on IMPDH2. For `COCc1c2c(c(O)c(C/C=C(\C)CCC(=O)O)c1OC)C(=O)OC2` [Compound 1, 8-O-methyl mycophenolic acid] the same measures were 4.21 ± 0.2 µM and 0.92 ± 0.08 µM. As to `COc1c(C)c2c(c(O)c1C/C=C(\C)CCC(=O)NCCCC(=O)O)C(=O)OC2` [Compound 7, 6-[5-(1-carboxy-4-N-carboxylate)-3-methylpent-2-enyl]-7-hydroxy-5-methoxy-4-methylphthalan-1-one], the 50% inhibitory concentration (IC50) is 24.6 ± 1.34 µM in assay [1] and 12.6 ± 1.86 µM on IMPDH2. Take `COc1c(C)c2c(c(O)c1C/C=C(\C)CCC(=O)N[C@H](C(=O)O)C(C)C)C(=O)OC2` [Compound 8, N-mycophenoyl-L-valine]: the figures for the IC50 (in assay [1]; on IMPDH2) were 30.6 ± 2.19 µM and 15.7 ± 1.65 µM, respectively. Regarding `COc1c(C)c2c(c(O)c1C/C=C(\C)CCC(=O)O)C(=O)OC2OC` (stereo not drawn) [Compound 3, 6-(5-carboxy-3-methylpent-2-enyl)-7-hydroxy-3,5-dimethoxy-4-methylphthalan-1-one], the half-maximal inhibitory concentration (IC50) is 2.76 ± 0.13 µM in assay [1] and 0.84 ± 0.11 µM on IMPDH2.

On to `COC(=O)CC/C(C)=C/Cc1c(O)c2c(c(C)c1OC)C(O)OC2=O` (stereo not drawn) [Compound 4, 6-(5-methoxycarbonyl-3-methylpent-2-enyl)-3,7-dihydroxy-5-methoxy-4-methylphthalan-1-one], for which the half-inhibitory concentration (IC50) in assay [1] turned out to be 9.12 ± 0.38 µM; on IMPDH2 it was 3.27 ± 0.18 µM. Taken in the same sequence, the figures for `COc1c(C)c2c(c(O)c1C/C=C(\C)CCC(=O)O)C(=O)OC2O` (stereo not drawn) [Compound 2, 3-hydroxy mycophenolic acid] were 1.23 ± 0.07 µM and 0.95 ± 0.09 µM.
